Assay [1] concerns the target Kallikrein-7 (Homo sapiens, UniProt P49862). Put plainly: Fluorescence Intensity-based biochemical primary high throughput dose response assay to identify activators of kallikrein-7 (K7) zymogen.
Assay [2] addresses Endoplasmic reticulum aminopeptidase 1 (Homo sapiens, UniProt Q9NZ08). Put plainly: inhibition of human ERAP1 enzyme activity – biochemical, cherry-pick, set 2, plate reader, dose response (AID 743314).
Assay [3] deals with T1, Heat shock factor protein 1 (Mus musculus, UniProt P38532).
T1 sequence (P38532 whole entry): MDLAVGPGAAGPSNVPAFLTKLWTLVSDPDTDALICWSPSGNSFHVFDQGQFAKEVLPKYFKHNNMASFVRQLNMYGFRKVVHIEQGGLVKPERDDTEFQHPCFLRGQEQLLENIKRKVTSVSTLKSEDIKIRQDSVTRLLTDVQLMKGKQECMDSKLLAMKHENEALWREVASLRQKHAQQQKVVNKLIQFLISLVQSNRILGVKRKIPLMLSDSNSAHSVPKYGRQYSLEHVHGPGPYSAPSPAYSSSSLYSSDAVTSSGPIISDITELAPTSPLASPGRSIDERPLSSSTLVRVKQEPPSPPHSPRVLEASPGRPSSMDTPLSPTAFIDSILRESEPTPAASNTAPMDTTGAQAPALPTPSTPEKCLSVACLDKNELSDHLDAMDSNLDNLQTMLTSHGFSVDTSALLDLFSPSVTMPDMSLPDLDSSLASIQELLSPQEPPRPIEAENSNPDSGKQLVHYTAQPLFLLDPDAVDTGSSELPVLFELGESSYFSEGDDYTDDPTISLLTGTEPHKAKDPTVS
Put plainly: decrease of HSF1-responsive luciferase luminescence – cell-based, NIH3T3, dose retest, confirmation (AID 2382).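 Further: NIH3T3 fibroblasts with HSF1-driven luciferase reporter stressed by proteasome inhibitor MG132; luminescence from HSF1-driven luciferase expression after 8 hours of MG132 stress.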 Type of assay: functional.

Assay [4] is described as follows: toxicity toward HepG2 liver cells – cell-based, plate reader, cherry-pick, antagonist series, cytotoxicity control, dose response (AID 743416). It is filed as functional.
Assay [5] can be described thus: blockers of bursicon-stimulated LGR2 cAMP reporter – cell-based, HEK293, CRE-luciferase reporter, cherry pick, set 2, dose response (AID 743343).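 Further: transfected cells were stimulated with diluted bursicon conditioned medium after compound addition.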 It is filed as functional.
The nature of assay [6]: general cell-killing toxicity readout – plate reader, dry powder samples, cytotoxicity control for PAX8 inhibitor project, dose response (AID 743021). It is filed as functional, cell-based.
The nature of assay [7]: reduction of Shn3 3'UTR-driven luciferase in osteoblasts – cell-based, Clone20 osteoblasts, firefly luciferase, cherry-picked, dose response (AID 624132).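 Further: firefly luciferase luminescence from reporter carrying the Shn3 3'UTR in osteoblasts.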 Type of assay: functional.
The nature of assay [8]: viability loss in HEK293 cells – cell-based, plate reader, cherry-picked samples, cytotoxicity control, dose response (AID 743446). Type of assay: functional.
Assay [9] concerns the target Paired box protein Pax-8 (Homo sapiens, UniProt Q06710). Put plainly: PAX8 transcriptional activity inhibition in RMG-I – RMG-I cells, luciferase, cherry-pick, dose response (AID 687027).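 Further: luciferase reporter driven by Pax8 target thyroperoxidase promoter measured by SteadyGlo luminescence.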 Type of assay: functional, cell-based.
Assay [10] can be described thus: A549 cell cytotoxicity, dose response, cytotoxicity control, plate reader, cherry-pick, antagonist series (AID 743412). Type of assay: functional, cell-based.
A short description of assay [11]: blockade of melanocortin 4 receptor signaling – cell-based, plate reader, cherry pick, counter-screen for LGR2 antagonist project, dose response (AID 743444).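 Further: transfected HEK 293 cells stimulated with alpha-MSH peptide; potency of inhibitors of the alpha-MSH evoked signal.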 Type of assay: functional.
In assay [12] the target is T2, Microphthalmia-associated transcription factor (Homo sapiens, UniProt O75030).
T2 sequence (O75030 whole entry): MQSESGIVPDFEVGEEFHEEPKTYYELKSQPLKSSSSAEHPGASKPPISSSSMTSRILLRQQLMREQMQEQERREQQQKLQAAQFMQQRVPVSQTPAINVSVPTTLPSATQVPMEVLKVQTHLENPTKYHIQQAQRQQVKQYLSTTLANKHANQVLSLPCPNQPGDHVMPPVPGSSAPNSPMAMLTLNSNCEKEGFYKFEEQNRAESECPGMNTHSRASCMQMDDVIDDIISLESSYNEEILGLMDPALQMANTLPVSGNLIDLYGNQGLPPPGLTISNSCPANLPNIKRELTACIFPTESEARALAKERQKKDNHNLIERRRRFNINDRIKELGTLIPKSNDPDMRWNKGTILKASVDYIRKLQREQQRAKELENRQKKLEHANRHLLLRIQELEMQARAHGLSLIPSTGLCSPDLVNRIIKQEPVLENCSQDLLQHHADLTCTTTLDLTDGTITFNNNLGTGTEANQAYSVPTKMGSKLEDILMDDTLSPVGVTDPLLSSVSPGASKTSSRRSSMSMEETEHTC
The assay is described as follows: reducers of TRPM1 reporter luminescence, concentration series – cell-based, SK-MEL-5, cherry-picked, set 3, MITF inhibitor project, dose response (AID 493073).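 Further: SK-MEL-5 melanoma cells with luciferase driven by the MITF target TRPM1 promoter.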 Type of assay: functional.

Assay [13] in a line: non-specific 3'UTR reporter inhibition in Clone20-Shn3RL – cell-based, Renilla luciferase, cherry-picked, counter-screen for Shn3 inhibitor project, dose response (AID 624133). Type of assay: functional.
Assay [14] is described as follows: loss of viability in HepG2 cells – cell-based, CellTiter-Glo, cherry-picked, cytotoxicity control for Shn3 inhibitor project, dose response (AID 624134). It is filed as functional.
The nature of assay [15]: Luminescence Cell-Based Dose Retest to Confirm Inhibitors of Cancer Stem Cells. [Related pubchem assays (depositor defined):AID2717, AID2721]. Type of assay: functional, Homo sapiens. The conditions noted are these: Homo sapiens.
Assay [16] in a line: IC50 of Artemis nuclease activity blockers – biochemical, fluorescence intensity, dose response (AID 720701).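 Further: Artemis endonuclease enzyme.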 Type of assay: functional.
For assay [17], the target named is Prothrombin (Homo sapiens, UniProt P00734). Put plainly: Thrombin 1536 HTS Dose Response Confirmation. [Related pubchem assays: 1046 (Thrombin 1536 HTS; hits were confirmed in this assay)]. Type of assay: functional.
Assay [18] is described as follows: CellTiter-Glo luminescence survival assay, SW480 colon tumor line, concentration-response curve, half-maximal inhibitory concentration (AID 1117338). It is filed as functional.
A short description of assay [19]: cytotoxicity toward Colo320 cells – cell-based, CellTiter-Glo luminescence, IC50, dose response (AID 1117334). It is filed as functional. To be noted: COLO 320.
Assay [20] is described as follows: RKO cell viability reduction, dose response, CellTiter-Glo luminescence (AID 1117322). It is filed as functional.
Assay [21] is described as follows: cytotoxicity toward HT-29 cells – cell-based, CellTiter-Glo luminescence, IC50, dose response (AID 1117330). Type of assay: functional.
Assay [22] can be described thus: cytotoxicity toward HCT116 cells – cell-based, CellTiter-Glo luminescence, IC50, dose response (AID 1117332). Type of assay: functional. The conditions noted are these: HCT-116.
A short description of assay [23]: Reduced DLD-1 viability, concentration-response, CellTiter-Glo luminescence (AID 1117352). Type of assay: functional.
Assay [24] can be described thus: HCT116 cell viability decrease, GSK3B pretreatment – CellTiter-Glo, IC50, dose response (AID 1117339). To be noted: HCT-116. Type of assay: functional.
A short description of assay [25]: viability inhibitors of stage V gametocytes – luminescence, dose response (AID 1117278).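 Further: gametocytes exposed to compound for 24 hours.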 It is filed as functional, cell-based.
Assay [26] in a line: viability loss in human Jurkat cells – cell-based, luminescence, cytotoxicity control for P. falciparum gametocyte viability project, dose response (AID 1117277).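 Further: potency reflects loss of cellular ATP meaning fewer viable cells.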 Type of assay: functional.
Assay [27] relates to Vero. The assay is described as follows: cells. Type of assay: functional. The conditions noted are these: Chlorocebus sabaeus.
The nature of assay [28]: viability loss in HepG2 hepatoma cells – cell-based, ATP luminescence, cherry-pick, activator set 2, cytotoxicity control, dose response (AID 1053143). Type of assay: functional.
Assay [29] concerns INS1. Put plainly: INS-1E survival protection against cytokine death – cell-based, luminescence, retest, dose response (AID 449756).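 Further: cell death triggered by IL-1 beta plus TNF-alpha plus IFN-gamma mixture; protective hits raise ATP signal compared with cytokine alone wells.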 It is filed as functional. The conditions noted are these: Rattus norvegicus.
The nature of assay [30]: rise of 2N DNA cells, HeLa – IC50, dose response (AID 1117349). Type of assay: functional, cell-based.
Assay [31] can be described thus: rise of 4N DNA cells, HeLa – IC50, dose response (AID 1117351). It is filed as functional, cell-based.

Activity calls are given as the source filed them.

Chain of Endoplasmic reticulum aminopeptidase 1 (Q9NZ08 whole entry): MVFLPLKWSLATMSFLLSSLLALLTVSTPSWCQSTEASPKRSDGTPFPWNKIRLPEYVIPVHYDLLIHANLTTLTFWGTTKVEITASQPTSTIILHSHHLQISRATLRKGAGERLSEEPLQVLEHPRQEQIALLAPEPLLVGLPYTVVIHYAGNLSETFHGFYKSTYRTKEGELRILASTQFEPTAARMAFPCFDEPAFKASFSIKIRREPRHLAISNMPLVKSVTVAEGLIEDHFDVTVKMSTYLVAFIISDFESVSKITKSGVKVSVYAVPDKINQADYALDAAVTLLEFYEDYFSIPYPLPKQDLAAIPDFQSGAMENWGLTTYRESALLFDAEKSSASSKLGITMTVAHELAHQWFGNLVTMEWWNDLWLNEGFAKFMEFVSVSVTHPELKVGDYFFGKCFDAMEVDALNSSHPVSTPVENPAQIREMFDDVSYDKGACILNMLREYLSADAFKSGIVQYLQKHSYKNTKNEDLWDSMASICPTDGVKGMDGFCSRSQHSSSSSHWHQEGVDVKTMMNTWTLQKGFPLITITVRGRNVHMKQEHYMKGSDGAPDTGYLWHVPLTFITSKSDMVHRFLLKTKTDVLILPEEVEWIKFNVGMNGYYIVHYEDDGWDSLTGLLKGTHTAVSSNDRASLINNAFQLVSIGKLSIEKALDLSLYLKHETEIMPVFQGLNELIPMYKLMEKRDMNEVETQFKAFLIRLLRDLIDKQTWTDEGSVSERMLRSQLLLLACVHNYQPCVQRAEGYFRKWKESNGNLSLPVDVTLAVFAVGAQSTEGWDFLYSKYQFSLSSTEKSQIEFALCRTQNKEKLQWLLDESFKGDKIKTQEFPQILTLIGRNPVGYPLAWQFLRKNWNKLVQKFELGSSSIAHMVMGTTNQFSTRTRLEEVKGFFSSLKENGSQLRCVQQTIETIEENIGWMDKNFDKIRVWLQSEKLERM
Chain of Paired box protein Pax-8 (Q06710 whole entry): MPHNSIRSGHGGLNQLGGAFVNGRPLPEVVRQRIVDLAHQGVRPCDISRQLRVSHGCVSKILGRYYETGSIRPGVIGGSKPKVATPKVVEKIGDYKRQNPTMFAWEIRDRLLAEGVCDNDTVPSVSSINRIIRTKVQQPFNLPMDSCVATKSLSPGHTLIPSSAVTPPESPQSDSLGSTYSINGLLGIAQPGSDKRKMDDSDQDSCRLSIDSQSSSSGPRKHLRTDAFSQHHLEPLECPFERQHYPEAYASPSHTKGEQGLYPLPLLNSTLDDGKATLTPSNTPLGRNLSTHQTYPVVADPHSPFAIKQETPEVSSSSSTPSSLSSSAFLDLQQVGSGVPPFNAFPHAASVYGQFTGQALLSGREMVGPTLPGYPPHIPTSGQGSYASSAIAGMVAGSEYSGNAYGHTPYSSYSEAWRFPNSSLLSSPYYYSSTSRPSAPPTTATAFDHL
Chain of Kallikrein-7 (P49862 whole entry): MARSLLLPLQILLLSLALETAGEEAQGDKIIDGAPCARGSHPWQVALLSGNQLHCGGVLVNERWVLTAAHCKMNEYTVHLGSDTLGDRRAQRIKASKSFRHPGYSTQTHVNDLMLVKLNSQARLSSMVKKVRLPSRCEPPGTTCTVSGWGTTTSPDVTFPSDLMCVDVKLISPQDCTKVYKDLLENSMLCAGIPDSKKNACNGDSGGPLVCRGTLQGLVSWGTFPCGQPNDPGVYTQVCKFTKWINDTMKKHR

For `COC(=O)Cc1c(C)c2ccc(O)c(CNCc3ccc(OC)c(OC)c3)c2oc1=O`, in assay [1], the concentration giving a half-maximal response (EC50) was > 0.858 µM (active). The AC50 in assay [2] is 3.51 µM (active).

On to `O=C(Nc1ccc2nc3n(c(=O)c2c1)CCCCC3)c1cc([N+](=O)[O-])ccc1F`, for which the concentration giving a half-maximal response (EC50) in [3] was > 195 µM (not active). Further, the AC50 in assay [4] was 18.3 µM (active); in assay [5] it was 6.52 µM (active); in assay [6] it was 42.6 µM (active); in [7], 14.1 µM (active); in assay [8], 14.7 µM (active); in assay [9], 14.3 µM (active). Further, the concentration at half-maximal activity (AC50) in [10] was 17.5 µM (active); in assay [11] it was 11.5 µM (active); in [12], 10.7 µM (active); in assay [13], 9.99 µM (active); in assay [14], 42.2 µM (active); in assay [15] it was 5.51 µM (active).

For `COc1cccc(OC)c1-c1nn2c(-c3cc(-c4ccccc4)[nH]n3)nnc2s1`, the concentration for half-maximal inhibition (IC50) in assay [16] is 1.96 µM (active).

Consider `COc1ccc(C(=O)n2nc(-c3ccco3)nc2N)cc1`, for which, in [17], the IC50 was 0.828 µM (active).

As for `Cc1cc(-c2ccc(N=Nc3c(S(=O)(=O)O)cc4cc(S(=O)(=O)O)cc(N)c4c3O)c(C)c2)ccc1N=Nc1c(S(=O)(=O)O)cc2cc(S(=O)(=O)O)cc(N)c2c1O`, the IC50 in assay [18], in assay [19], in assay [20], in assay [21], in assay [22] and in assay [23] was > 20 µM (inactive) each time. Also, the IC50 in assay [24] is > 20 µM (inactive).

As to `COc1ccc(OC)c(S(=O)(=O)Nc2c(C)cccc2C)c1`, the IC50 was > 109 µM (inactive) in assay [25] and > 83.3 µM (inactive) in assay [26].

As to `COc1ccc2c(c1)c(/C=N/Nc1nc3ccccc3[nH]1)c(C)n2C`, in assay [27], the CC50 is 13.4 µM (active). Further, the AC50 was 26 µM (active) in assay [28] and 10.2 µM (active) in [29].

As to `O=c1[nH]c(=O)n([C@H]2C[C@H](O)[C@@H](CO)O2)cc1I` [IDOXURIDINE], the IC50 in [30] and in assay [31] was > 10 µM (inactive) in each case.

In the case of `CCC(=O)NC(=Nc1ccc(OC)cc1)Nc1nc(C)cc(C)n1`, in assay [17], the IC50 was 1.23 µM (active).

Take `Cc1c(Cc2ccccc2)c(=O)oc2cc(O)ccc12`: the AC50 in assay [2] was 12.6 µM (active).
